Our source for the mortality and percent effect (mortality or growth inhibition) values is patent US10292391B2, “Pesticidally active 1,2,4-triazole derivatives with sulphur containing substituents” (Syngenta Participations AG, priority 2015, dated 2019).

What all share (format): in vivo
Experiment [1] deals with Spodoptera littoralis (Egyptian Cotton Leaf Worm). Description: Activity against Spodoptera littoralis, sprayed cotton leaf discs. The following applies: foliar, 72 h, application rate of 200 ppm, L1 larvae, 3 days after infestation, read-out: control (at least one of mortality, anti-feedant effect, and growth inhibition). How it is done:
Cotton leaf discs were placed on agar in 24-well microtiter plates and sprayed with aqueous test solutions prepared from 10,000 ppm DMSO stock solutions. After drying the leaf discs were infested with five L1 larvae. The samples were assessed for mortality, anti-feedant effect, and growth inhibition in comparison to untreated samples 3 days after infestation. Control of Spodoptera littoralis by a test sample is when at least one of mortality, anti-feedant effect, and growth inhibition is higher than the untreated sample.

Experiment [2] deals with Diabrotica Balteata (Corn Root Worm). Description: Activity against Diabrotica balteata, sprayed maize sprouts. Conditions: 96 h, application rate of 200 ppm, L2 larvae, 4 days after infestation, read-out: effect in at least one of the two categories (mortality or growth inhibition). How it is done:
Maize sprouts, placed on an agar layer in 24-well microtiter plates were treated with aqueous test solutions prepared from 10,000 ppm DMSO stock solutions by spraying. After drying, the plates were infested with L2 larvae (6 to 10 per well). The samples were assessed for mortality and growth inhibition in comparison to untreated samples 4 days after infestation.

Experiment [3] relates to Euschistus heros(Neotropical Brown Stink Bug). Nature of the experiment: Activity against Euschistus heros, sprayed soybean leaf. The following applies: 120 h, application rate of 200 ppm, N-2 nymphs, 5 days after infestation, read-out: effect in at least one of the two categories (mortality or growth inhibition). How it is done: Soybean leaf on agar in 24-well microtiter plates were sprayed with aqueous test solutions prepared from 10,000 ppm DMSO stock solutions. After drying the leaf were infested with N-2 nymphs. The samples were assessed for mortality and growth inhibition in comparison to untreated samples 5 days after infestation.

In experiment [4] the test system is Myzus persicae (Green Peach Aphid). Nature of the experiment: Activity against Myzus persicae, sprayed sunflower leaf discs. Conditions: foliar, 144 h, application rate of 200 ppm, aphid population of mixed ages, 6 days after infestation. How it is done: Sunflower leaf discs were placed on agar in a 24-well microtiter plate and sprayed with aqueous test solutions prepared from 10,000 ppm DMSO stock solutions. After drying, the leaf discs were infested with an aphid population of mixed ages. The samples were assessed for mortality 6 days after infestation.

Experiment [5] deals with Plutella xylostella (Diamond Back Moth). Nature of the experiment: Activity against Plutella xylostella, treated artificial diet. The following applies: 120 h, application rate of 200 ppm, L2 larvae, 5 days after infestation, read-out: effect in at least one of the two categories (mortality or growth inhibition). The procedure: 24-well microtiter plates with artificial diet were treated with aqueous test solutions prepared from 10,000 ppm DMSO stock solutions by pipetting. After drying, the plates were infested with L2 larvae (10 to 15 per well). The samples were assessed for mortality and growth inhibition in comparison to untreated samples 5 days after infestation.

The structures appear in SMILES notation. Some results are limits rather than exact numbers.

As a reminder, the mortality is the share of the test organisms that died. `CCSc1cc(-c2ccc(Cl)cc2)cnc1-c1nnc(-c2cc(C(F)(F)F)ccn2)n1C` [Compound P1, 5-(4-chlorophenyl)-3-ethylsulfanyl-2-[4-methyl-5-[4-(trifluoromethyl)-2-pyridyl]-1,2,4-triazol-3-yl]pyridine]: the mortality at 200 ppm in experiment [1] was at least 80%. Moreover, in experiment [2], the percent effect (mortality or growth inhibition) at 200 ppm was at least 80%.

On to `CCS(=O)(=O)c1cc(-c2ccc(Cl)cc2)cnc1-c1nnc(-c2cc(C(F)(F)F)ccn2)n1C` [Compound P2, 5-(4-chlorophenyl)-3-ethylsulfonyl-2-[4-methyl-5-[4-(trifluoromethyl)-2-pyridyl]-1,2,4-triazol-3-yl]pyridine], for which, in experiment [1], the mortality at 200 ppm is at least 80%. In addition, the percent effect (mortality or growth inhibition) at 200 ppm in experiment [2] was at least 80%.

Consider `CCS(=O)(=O)c1cc(-n2cccn2)cnc1-c1nnc(-c2cc(C(F)(F)F)ccn2)n1C` [Compound P4, 3-ethylsulfonyl-2-[4-methyl-5-[4-(trifluoromethyl)-2-pyridyl]-1,2,4-triazol-3-yl]-5-pyrazol-1-yl-pyridine], for which the percent effect (mortality or growth inhibition) at 200 ppm in experiment [3] was at least 80%. Further, the mortality at 200 ppm in experiment [4] and in experiment [1] was at least 80% each time.

As for `CCSc1cc(-n2cc(C(F)(F)F)cn2)cnc1-c1nnc(-c2cc(C(F)(F)F)ccn2)n1C` [Compound P5], the percent effect (mortality or growth inhibition) at 200 ppm in experiment [2] was at least 80%.

As for `CCS(=O)(=O)c1cc(-c2ccc(C(F)(F)F)cc2)cnc1-c1nnc(-c2cc(C(F)(F)F)ccn2)n1C` [Compound P11], the percent effect (mortality or growth inhibition) at 200 ppm in experiment [3], in experiment [5] and in experiment [2] was at least 80% in each case. Also, the mortality at 200 ppm in experiment [4] and in experiment [1] was at least 80% each time.

In the case of `CCS(=O)(=O)c1cc(-c2ncc(Cl)cn2)cnc1-c1nnc(-c2cc(C(F)(F)F)ccn2)n1C` [Compound P18], in experiment [1], the mortality at 200 ppm is at least 80%. In addition, the percent effect (mortality or growth inhibition) at 200 ppm in experiment [2] was at least 80%.

In the case of `CCS(=O)(=O)c1cc(-c2cccc(Cl)n2)cnc1-c1nnc(-c2cc(C(F)(F)F)ccn2)n1C` [Compound P24, 5-(6-chloro-2-pyridyl)-3-ethylsulfonyl-2-[4-methyl-5-[4-(trifluoromethyl)-2-pyridyl]-1,2,4-triazol-3-yl]pyridine], the percent effect (mortality or growth inhibition) at 200 ppm in experiment [3], in experiment [5] and in experiment [2] was at least 80% each time. For the same molecule, the mortality at 200 ppm in experiment [1] is at least 80%.

As to `CCS(=O)(=O)c1cc(SC(F)(F)F)cnc1-c1nnc(-c2cc(C(F)(F)F)ccn2)n1C` [Compound P34, 3-ethylsulfonyl-2-[4-methyl-5-[4-(trifluoromethyl)-2-pyridyl]-1,2,4-triazol-3-yl]-5-(trifluoromethylsulfanyl)pyridine], the mortality at 200 ppm in experiment [4] was at least 80%. In addition, in experiment [2], the percent effect (mortality or growth inhibition) at 200 ppm is at least 80%.

Regarding `CCS(=O)(=O)c1cc(S(=O)(=O)C(F)(F)F)cnc1-c1nnc(-c2cc(C(F)(F)F)ccn2)n1C` [Compound P35, 3-ethylsulfonyl-2-[4-methyl-5-[4-(trifluoromethyl)-2-pyridyl]-1,2,4-triazol-3-yl]-5-(trifluoromethylsulfonyl)pyridine], the percent effect (mortality or growth inhibition) at 200 ppm in experiment [5] and in experiment [2] was at least 80% each time. In addition, the mortality at 200 ppm in experiment [1] is at least 80%.

For the molecule `CCS(=O)(=O)c1ccc(C2CC2)nc1-c1nnc(-c2cc(C(F)(F)F)ccn2)n1C` [Compound P38], the percent effect (mortality or growth inhibition) at 200 ppm in experiment [5] and in experiment [2] was at least 80% throughout. Also, the mortality at 200 ppm in experiment [1] was at least 80%.

Turning to `CCS(=O)(=O)c1cc(-c2cccc(F)c2)cnc1-c1nnc(-c2cc(C(F)(F)F)ccn2)n1C` [Compound P53], the percent effect (mortality or growth inhibition) at 200 ppm in experiment [5] and in experiment [2] was at least 80% in each case. Besides, the mortality at 200 ppm in experiment [1] was at least 80%.
